From the NIST ThermoML archive (doi:10.1016/j.jct.2015.08.027)
Numbers after ± are expanded uncertainties.

Legend:
[1] = refractive index (Na D-line) (dimensionless); conditions: 101.33 kPa, Liquid, Standard Abbe refractometry
[2] = 101.33 kPa, Liquid, Vibrating tube method
[3] = refractive index (Na D-line) (dimensionless); wn = mass fraction of the nth substance listed; conditions: 81.5 kPa, Liquid, Standard Abbe refractometry

Row | Compound | refractive index ([1]; 293.2 K) | refractive index ([1]; 298.2 K) | refractive index ([1]; 303.2 K) | mass density ([2]; 293.2 K) [kg/m3] | mass density ([2]; 298.2 K) [kg/m3] | mass density ([2]; 303.2 K) [kg/m3] | refractive index ([3]; 293.2 K, w2 = 0.0142) | refractive index ([3]; 293.2 K, w2 = 0.993) | refractive index ([3]; 298.2 K, w2 = 0.0161) | refractive index ([3]; 298.2 K, w2 = 0.9924) | refractive index ([3]; 303.2 K, w2 = 0.0164) | refractive index ([3]; 303.2 K, w2 = 0.9914)
1 | CCCCCCn1cc[n+](C)c1.F[P-](F)(F)(F)(F)F [1-hexyl-3-methylimidazolium hexafluorophosphate] | 1.4176 ± 0.00053 | 1.4164 ± 0.00053 | 1.41515 ± 0.00053 | 1294.91 ± 2.6 | 1290.88 ± 2.6 | 1286.85 ± 2.6 | – | – | – | – | – | –
2 | CCCCCCn1cc[n+](C)c1.F[P-](F)(F)(F)(F)F [1-hexyl-3-methylimidazolium hexafluorophosphate] + O | – | – | – | – | – | – | 1.4164 ± 0.001 | 1.3334 ± 0.00077 | 1.41525 ± 0.00099 | 1.3332 ± 0.0008 | 1.4135 ± 0.00098 | 1.33345 ± 0.00086
3 | CC(C)=O [acetone] | 1.3588 ± 0.00051 | 1.35575 ± 0.00051 | 1.35265 ± 0.00051 | 790.66 ± 1.6 | 784.4 ± 1.6 | 778.7 ± 1.6 | – | – | – | – | – | –
4 | O [water] | 1.33305 ± 0.00049 | 1.3325 ± 0.00049 | 1.33195 ± 0.00049 | – | – | – | – | – | – | – | – | –
